Measured values as given in paper PMC3391913, “Cellular Immune Reactions of the Sunn Pest, Eurygaster integriceps, to the Entomopathogenic Fungus, Beauveria bassiana and Its Secondary Metabolites” (Journal of Insect Science, 2011).

System: T1, phenoloxidase (PO)
T1 construct: gene prophenoloxidase; native, unpurified hemocyte lysate supernatant of adults; bands of 46 and 59 kDa on native PAGE
Test: spectrophotometric phenoloxidase assay at […] nm, fit in SigmaPlot
Assay type: biochemical, Eurygaster integriceps
Settings: control insects without fungal metabolite; hemocyte lysate; 3-10 mM substrate; phosphate buffer pH 6.5; 30 °C

`N[C@@H](Cc1ccc(O)c(O)c1)C(=O)O` [L-dihydroxyphenylalanine] gave a Km of 1630 µM.
